Measured values as given in patent US4192871A, “Chemical compounds” (Glaxo Laboratories Limited, priority 1976, dated 1980).

How the values were obtained:
pH of the salt solutions = type: physicochemical; settings: aqueous solution of the salt, Table 5
Method: (§1) A solution of the above free base (492 mg; 1 mmole) in ethanol (10 ml) was treated with a solution (10 ml) of M/10 citric acid in ethanol water (9:1) and the mixture evaporated in vacuo at low temperature to afford a froth.
(§2) Table 5 summarises the properties and preparation of salts of the invention by one of the following methods:
(§3) A. The 11β-aminoester (1 part) was added to a solution of the acid (1 molar part) in water and the mixture stirred or shaken until a clear solution was obtained. The solution was made up with water to the weight indicated, filtered through a membrane and the pH determined.
(§4) B. The 11β-aminoester (1 part) was added to a solution of the acid (1 molar part) in water and the mixture stirred or shaken. As free base remained undissolved, further acid was added and the mixture agitated again. The solution was made up with water to the weight indicated and any material which then remained undissolved was collected in a weighed funnel and the weight of free base dissolved calculated and the pH of the solution measured.
(§5) C. A mixture of the 11β-aminoester (1 part), a 0.1 M solution of the acid (1 molar part) and ethanol was evaporated in vacuo and dried to constant weight. The residue was dissolved in a little water and any material which then remained undissolved collected in a weighed funnel and the weight of free base dissolved calculated. The solution was made up with water to the weight indicated and its pH measured.
(§6) D. The 11β-aminoester (1 part) was added to a solution of the acid (1 molar part) in water and the mixture stirred or shaken. The solution was made up with water to the weight indicated. The material remaining undissolved was collected in a weighed funnel and the weight of free base dissolved calculated and the pH of the solution measured.
(§7) E. As in method C except that further acid was added to the residue after addition of the small amount of water.
11β-N,N-Diethylaminoacetoxy-2β-ethoxy-3α-hydroxy-5α-pregnan-20-one (1.45 g) was agitated with citric acid monohydrate (621 mg) in 0.9% w/v sodium chloride solution (steriflex^(R)) (130 ml.) at 20° for 16.5 hours. The resulting solution was stirred at 21° and N/5 sodium hydroxide solution in steriflex^(R) (10.5 ml) was added dropwise during 30 minutes, raising the pH from 3.63 to 4.52. The solution was diluted to 162.5 g so that the concentration of steroid was 9 mg/ml. The solution of the citrate was filtered through a membrane and finally filtered into 8 sterile ampoules.
11β-(N-Butyl-N-ethylaminoacetoxy)-3α-hydroxy-5α-pregnan-20-one (1.80 g) was agitated with citric acid monohydrate (793 mg) in 0.9% w/v sodium chloride solution (steriflex^(R)) (160 ml) at 20° for 19.5 hours. The resulting solution was slightly cloudy. This solution was stirred at 21° and N/5 sodium hydroxide solution in steriflex^(R) (5.8 ml) was added dropwise during 15 minutes, raising the pH from 3.62 to 4.00. The solution was diluted to 201.2 g so that the concentration of steroid was 9 mg/ml. The cloudiness was removed by filtration through a membrane and the clear solution of the citrate was filtered into 8 sterile ampoules.
Sodium iodide (0.250 g) and diethylamine (0.5 ml) were added to a solution of 11β-chloroacetoxy-2β-ethoxy-3α-hydroxy-D-homo-5α-pregnan-20-one (0.250 g) in acetone (10 ml) and the mixture was left at room temperature for 3 days during which time a white solid precipated. Water was added and the yellow solution was concentrated in vacuo whereupon crystallisation occurred. The needles were filtered off and washed well with acetone/water yielding the title compound (0.201 g), m.p. 160°-73°, [α]D +60.8°. The above base (0.101 g) was stirred with citric acid monohydrate (0.042 g) in water (9.5 ml) for 21 hours. The solution was made up to 10.1 g by weight. The solid remaining out of solution was filtered off, dried and weighed. The solution was passed through a millipore filter giving an aqueous solution of the title compound, concentration 9.75 mg/ml, pH 3.66. […]

[1] = dissolution of the 11β-aminoester salts in aqueous acid (Table 5 and Examples 101, 225-229); type: physicochemical
Method: as §1, §2, §3, §4, §5, §6, §7
The solid citric acid used was as its monohydrate.
Sodium iodide (0.250 g) and diethylamine (0.5 ml) were added to a solution of 11β-chloroacetoxy-2β-ethoxy-3α-hydroxy-D-homo-5α-pregnan-20-one (0.250 g) in acetone (10 ml) and the mixture was left at room temperature for 3 days during which time a white solid precipated. Water was added and the yellow solution was concentrated in vacuo whereupon crystallisation occurred. The needles were filtered off and washed well with acetone/water yielding the title compound (0.201 g), m.p. 160°-73°, [α]D +60.8°. The above base (0.101 g) was stirred with citric acid monohydrate (0.042 g) in water (9.5 ml) for 21 hours. The solution was made up to 10.1 g by weight. The solid remaining out of solution was filtered off, dried and weighed. The solution was passed through a millipore filter giving an aqueous solution of the title compound, concentration 9.75 mg/ml, pH 3.66.
The above base (0.096 g) was stirred in a solution of citric acid monohydrate (0.038 g) in water (8.5 ml) for 20 hours. A large proportion of the steroid remained out of solution. More citric acid (0.038 g) was added and the mixture stirred for a further 6 hours. The solution was made up to 9.6 g by weight and the solid remaining out of solution was filtered off, dried and weighed. The solution was passed through a millipore filter giving an aqueous solution of the title compound, concentration 9.5 mg/ml, pH 2.85.
To a solution of citric acid monohydrate (52.5 mg) in water (2 ml) was added the above free base (115 mg). More water (8 ml) was added and the mixture was stirred for 72 hrs. A small amount of steroid remained out of solution and more citric acid (52.5 mg) was added. Within 5 mins. a clear solution was obtained which was made up to 11.5 g with water and filtered through a millipore filter yielding an aqueous solution of the title citrate, concentration 10 mg/ml, pH 3.0.
The above free base (112 mg) was added to a solution of citric acid monohydrate (52.5 mg) in water (2 ml). More water (8 ml) was added and the mixture was swirled from time to time. […]

[2] = method D: 1 molar part acid, undissolved material weighed, WT. of solution 10 g, except Ex. 136: 8.95, 140: 9.52, 165 and 167: 10.1, 190 and 198: 9.8, 191: 8.9, 194: 6.6, 204: 10.09, 219: 10.6 g
[3] = method A: clear solution, 1 molar part acid, made up with water to WT. of solution 10 g, except Ex. 121 and 150: 12, 123: 12.3, 124: 7.5, 129: 10.3, 135 and 139: 8.95, 164: 10.35, 170: 10.4, 181: 10.04, 187: 9.5, 210: 10.2, 221: 15 g
[4] = method B: further acid added, undissolved material weighed, WT. of solution 10 g, except Ex. 130 and 141: 9.2, 142: 9.23, 143, 144, 189 and 199: 9.8, 149: 10.6, 153: 7.9, 162 and 188: 9.5, 163: 68, 166: 10.4, 168: 10.7, 169: 10.9, 183: 8.05, 184 and 201: 9.83, 185: 7.1, 186: 9.3, 192: 10.07, 193: 6.4, 195: 6.8, 196: 7, 197: 7.2, 200: 10.1, 206: 15 g
[5] = method C: ethanol evaporated, residue in water, undissolved material weighed, WT. of solution Ex. 118: 10, 120: 10.4, 148: 9.54, 152: 5.6, 154: 9.1, 155: 8.77, 156: 9.06, 157: 9.5, 158: 9.38, 159: 9.17, 179: 9.65, 180: 11.7, 182: 4.9, 202: 12.05, 213: 12, 214: 11.5, 215: 11.1, 216: 11.6, 217: 12.1 g

In the case of `CC(=O)[C@H]1CC[C@H]2[C@@H]3CC[C@H]4C[C@](C)(O)CC[C@]4(C)[C@H]3[C@@H](OC(=O)CN3CCC(C)CC3)C[C@]12C` [Example 134], the pH (pH of the salt solutions) is reported as 3.2 and the Dissolved aminoester [1, 2] is reported as 84 mg.

In the case of `CC(=O)[C@H]1CC[C@H]2[C@@H]3CC[C@H]4C[C@H](O)CC[C@]4(C)[C@H]3[C@@H](OC(=O)CNCC(C)C)C[C@]12C` [Example 135], the pH (pH of the salt solutions) is reported as 3.27 and the Dissolved aminoester [1, 3] is reported as 80.5 mg.

For `CCCCNCC(=O)O[C@H]1C[C@]2(C)[C@@H](C(C)=O)CC[C@H]2[C@@H]2CC[C@H]3C[C@H](O)CC[C@]3(C)[C@H]21` [Example 136], the pH (pH of the salt solutions) was 3.60 and the Dissolved aminoester [1, 2] was 83.5 mg.

`CC(=O)[C@H]1CC[C@H]2[C@@H]3CC[C@H]4C[C@H](O)CC[C@]4(C)[C@H]3[C@@H](OC(=O)CNC3CCCC3)C[C@]12C` [Example 137] showed a pH (pH of the salt solutions) of 3.62 and a Dissolved aminoester [1, 3] of 100 mg.

Compound `CC(=O)[C@H]1CC[C@H]2[C@@H]3CC[C@H]4C[C@H](O)CC[C@]4(C)[C@H]3[C@@H](OC(=O)CNC3CCCCC3)C[C@]12C` [Example 138] has a pH (pH of the salt solutions) of 3.10 and a Dissolved aminoester [1, 3] of 100 mg.

Work on `CCC(C)NCC(=O)O[C@H]1C[C@]2(C)[C@@H](C(C)=O)CC[C@H]2[C@@H]2CC[C@H]3C[C@H](O)CC[C@]3(C)[C@H]21` (some centres unmarked) [Example 139] yielded a pH (pH of the salt solutions) of 3.76 and a Dissolved aminoester [1, 3] of 89.5 mg.

Compound `CC(=O)[C@H]1CC[C@H]2[C@@H]3CC[C@H]4C[C@H](O)CC[C@]4(C)[C@H]3[C@@H](OC(=O)CNC(C)CC(C)C)C[C@]12C` (some centres unmarked) [Example 140] has a pH (pH of the salt solutions) of 3.59 and a Dissolved aminoester [1, 2] of 80.7 mg.

With `CCCC(C)NCC(=O)O[C@H]1C[C@]2(C)[C@@H](C(C)=O)CC[C@H]2[C@@H]2CC[C@H]3C[C@H](O)CC[C@]3(C)[C@H]21` (some centres unmarked) [Example 141] the pH (pH of the salt solutions) was 2.89 and the Dissolved aminoester [1, 4] was 77.3 mg.

`CC(=O)[C@H]1CC[C@H]2[C@@H]3CC[C@H]4C[C@H](O)CC[C@]4(C)[C@H]3[C@@H](OC(=O)CNCC(C)(C)C)C[C@]12C` [Example 142] gave a pH (pH of the salt solutions) of 3.12 and a Dissolved aminoester [1, 4] of 92.3 mg.

In the case of `CC(=O)[C@H]1CC[C@H]2[C@@H]3CC[C@H]4C[C@H](O)CC[C@]4(C)[C@H]3[C@@H](OC(=O)CNC(C)CCC(C)C)C[C@]12C` (some centres unmarked) [Example 143], the pH (pH of the salt solutions) is reported as 2.85 and the Dissolved aminoester [1, 4] is reported as 86 mg.

Work on `CC(=O)[C@H]1CC[C@H]2[C@@H]3CC[C@H]4C[C@H](O)CC[C@]4(C)[C@H]3[C@@H](OC(=O)CNC(C(C)C)C(C)C)C[C@]12C` [Example 144] yielded a pH (pH of the salt solutions) of 2.79 and a Dissolved aminoester [1, 4] of 61 mg.

With `CC(=O)[C@H]1CC[C@H]2[C@@H]3CC[C@H]4C[C@H](O)CC[C@]4(C)[C@H]3[C@@H](OC(=O)CNC3CC3)C[C@]12C` [Example 145] the pH (pH of the salt solutions) was 2.93 and the Dissolved aminoester [1, 2] was 93 mg.

Compound `CC(=O)[C@H]1CC[C@H]2[C@@H]3CC[C@H]4C[C@H](O)CC[C@]4(C)[C@H]3[C@@H](OC(=O)CNC34CC5CC(CC(C5)C3)C4)C[C@]12C` [Example 146] has a pH (pH of the salt solutions) of 2.92 and a Dissolved aminoester [1, 4] of 86 mg.

Work on `CCC(C)N(CC(=O)O[C@H]1C[C@]2(C)[C@@H](C(C)=O)CC[C@H]2[C@@H]2CC[C@H]3C[C@H](O)CC[C@]3(C)[C@H]21)C(C)CC` (some centres unmarked) [Example 147] yielded a pH (pH of the salt solutions) of 2.03 and a Dissolved aminoester [1, 4] of 85 mg.

Compound `CC(=O)[C@H]1CC[C@H]2[C@@H]3CC[C@H]4C[C@H](O)CC[C@]4(C)[C@H]3[C@@H](OC(=O)CN3CCCCC3C)C[C@]12C` (some centres unmarked) [Example 148] has a pH (pH of the salt solutions) of 3.55 and a Dissolved aminoester [1, 5] of 95.4 mg.

`CCCO[C@H]1C[C@@]2(C)[C@@H](CC[C@@H]3[C@@H]2[C@@H](OC(=O)CN2CCC(C)CC2)C[C@]2(C)[C@@H](C(C)=O)CC[C@@H]32)C[C@@H]1O` [Example 149] gave a pH (pH of the salt solutions) of 2.9 and a Dissolved aminoester [1, 4] of 106 mg.

In the case of `CCCCN(CC)CC(=O)O[C@H]1C[C@]2(C)[C@@H](C(C)=O)CC[C@H]2[C@@H]2CC[C@H]3C[C@H](O)[C@@H](OCC)C[C@]3(C)[C@H]21` [Example 150], the pH (pH of the salt solutions) is reported as 3.35 and the Dissolved aminoester [1, 3] is reported as 120 mg.

In the case of `CC(=O)[C@H]1CC[C@H]2[C@@H]3CC[C@H]4C[C@H](O)CC[C@]4(C)[C@H]3[C@@H](OC(=O)CN(C)C)C[C@]12C` [Example 151], the pH (pH of the salt solutions) is reported as 3.6 and the Dissolved aminoester [1, 3] is reported as 100 mg.

In the case of `CCN(CC)CC(=O)O[C@H]1C[C@]2(C)[C@@H](C(C)=O)CC[C@H]2[C@@H]2CC[C@H]3C[C@H](O)CC[C@]3(C)[C@H]21` [Example 152], the pH (pH of the salt solutions) is reported as 3.6 and the Dissolved aminoester [1, 5] is reported as 55.95 mg.

In the case of `CC(=O)[C@H]1CC[C@H]2[C@@H]3CC[C@H]4C[C@H](O)CC[C@]4(C)[C@H]3[C@@H](OC(=O)CN(C(C)C)C(C)C)C[C@]12C` [Example 153], the pH (pH of the salt solutions) is reported as 3.02 and the Dissolved aminoester [1, 4] is reported as 79 mg.

In the case of `CCCN(CCC)CC(=O)O[C@H]1C[C@]2(C)[C@@H](C(C)=O)CC[C@H]2[C@@H]2CC[C@H]3C[C@H](O)CC[C@]3(C)[C@H]21` [Example 154], the pH (pH of the salt solutions) is reported as 3.5 and the Dissolved aminoester [1, 5] is reported as 91 mg.

Compound `CC(=O)[C@H]1CC[C@H]2[C@@H]3CC[C@H]4C[C@H](O)CC[C@]4(C)[C@H]3[C@@H](OC(=O)CN3CCCC3)C[C@]12C` [Example 155] has a pH (pH of the salt solutions) of 3.45 and a Dissolved aminoester [1, 5] of 87.7 mg.
